Tests used:
Type in all cases: in vivo, Wistar rats
[1] = test system: physical dependence from morphine (morphine abstinence); assay: Morphine abstinence syndrome, signs scored in the open field test; settings: Morphine − (morphine + compound); compound 3 x 20 mg/kg intramuscularly; one value for the three compounds
Protocol: Thirty six hours after the last injection selected motor and autonomice parameters which are specific symptoms of abstinence were monitored in the <<open field>> test (an arena with a diameter of 120 cm and wall height of 40 cm).
Med., 2002, V.29, p.1-6.). The observable signs were recorded quantitatively (if it was possible) with further assignment of an index to each sign (depending on the specific feature of the sign) and calculation of the sum of scores. The expression of the abstinence syndrome was presented as a sum of scores. The results were processed using nonparametric statistical analysis based on the Mann-Whitney test.

[2] = test system: nitric oxide synthase (NOS); assay: Nitric oxide synthase activity in brain regions, radiometric [3H]L-citrulline method; settings: 3 x 20 mg/kg intramuscularly
Protocol: (§1) After the above experiments the rat brains were isolated and immediately placed in the ice cold 0.9% solution of sodium chloride. After cooling the following structures were isolated from the brain: cerebral cortex, hippocampus, mesencephalon, striatum, brainstem, hypothalamus and cerebellum. The isolated tissue was homogenized in a Potter S homogenizer for 3 minutes at 1500 rpm in 4-5 volumes of 20 mM HEPES (pH 7.5) at 4° C. The supernatants were centrifuged for 30 minutes at 11000 g at 4° C., and aliquots of the obtained supernatants were taken for determining nitrates and nitrites (NOx-), while the remaining part was mixed with cooled 20 mM of HEPES (pH 7.5), containing 0.5 mM ethylenediamine tetraacetate (EDTA), 1 mM dithiotreitol (DDT), 1 mM phenylmethylsulfonyl fluoride (PMSF), aprotinine and leupeptine at a concentration of 5 μg/ml, this mixture being used for determining nitric oxide synthase (NOS) activity.
The activity of nitric oxide synthase (NOS) was determined using a radiometric method by the rate of L-citrulline accumulation in a reaction of [^3H] L-arginine oxidation catalyzed by NOS (Bredt M., Snyder S. Nitric oxide mediates glutamate-linked enhancement of cGMP levels in the cerebellum. Proc. Natl. Acad. Sci., USA, 1989, V.86, p.9030-9033). The formation of L-citrulline in this reaction is equivalent to a biosynthesis of nitric oxide.
The reaction was initiated by adding brain supernatant in the reaction medium containing 2 μCi/ml of [3H] L-arginine, 20 mM HEPES (pH 7.4), 0.2 mM CaCl2, 5 μM FAD, 5 μM FMN, 1 mM NADPH, 50 μM of BH4. After 15-60 minutes of incubation at 37° C. a suspension of Dowex 50WX8-400 (Na^+-form), which sorbs unreacted [^3H]L-arginine, but not [^3H] L-citrulline was added to the samples. After the sorption the radioactivity of the samples was determined on a scintillation counter SL-4000 (“Intertechnique”). The activity of Ca^2+-dependent and Ca^2+-independent NOS isoforms was determined by the difference of rates of [^3H]L-citrulline formation in three parallel samples containing 2 mM EDTA (Ca^2+ chelator), 2 mM EDTA+2 mM L-NAME (inhibitor all NOS isoforms) or without inhibitors. The enzyme activity was expressed in rnol [^3H]L-citrulline acumulated per 1 minute on 1 mg of supernatant protein.
(§2) The content of protein in the samples was determined by the Bradford method (Bradford M. M. A rapid and sensitive method for quantitation of microgram quantities of protein using the principle of protein binding . Anal. Biochem., 1976, V. 72, p. 248-254) using Coumassi dye. The statistical analysis was performed using methods appropriate for respective experiments. The data are expressed as mean±standard error of mean.

[3] = test system: nitrites and nitrates (NOx-); assay: Measurement of nitrates/nitrites (NOx-) in brain regions after the morphine abstinence experiment; settings: 3 x 20 mg/kg intramuscularly
Protocol: as §1
To estimate the intensity of metabolism of nitric oxide in rats, quantitative determination of stable metabolites of nitrogen oxide-nitrites and nitrates (NOx-) was performed using a fluorometric method by fluorescence of naphthotriazole, a product of reaction of 2,3- diaminonaphthalene (DAN) and nitrite in an acidic medium (Misko T. R., Schilling R. J., Salvemini D. et al. A fluorometric assay for the measurement of nitrite in biological samples. Anal. Biochem., 1993, V. 214, p.11-16) with modifications (Lei B., Adachi N., Nagaro T., Arai T. Measurement of total nitric oxide metabolite (NO (x) (-)) levels in vivo. Brain. Res. Protoc., 1999, V. 4, p. 415-419).
The supernatants of brain deproteinized at 100° C. were placed in a nitrite recovery system containing 0.125 unit/ml of nitrate reductase, 25 μM NADPH and 25 μM FAD prepared in 20 mM Tris-HCl buffer pH 7.6 and incubated for 30 minutes at 37° C. For oxidation of NADPH a lactate dehydrogenase (LDH)/pyruvate system was used. Then 316.0 μM DAN solution in 0.62 M HCl was added and the mixture was incubated for 10 minutes in dark. For stabilization of fluorescence of the formed naphthotriazole, 280 mM NaOH was added. The fluorescence intensity was measured using spectrofluorometer Hitachi F-3000 at a wavelength of excitation 365 nm and emission 405 nm. To calculate the concentration of NOx- in the brain a standard solution of sodium nitrate was used. The concentration of NOx- was expressed in nmol/mg of protein.
as §2

[4] = Groups Nos. 3-14, compound without morphine, one value for all 12 compounds
[5] = Morphine + compound, one value for the three compounds

Row | Compound | Authentic differences (ξ-square criterion) in appearance of signs of abstinence: <<Wet dog>> shakes [1] | Authentic differences (ξ-square criterion) in appearance of signs of abstinence: Aggression [1] | Authentic differences (ξ-square criterion) in appearance of signs of abstinence: Convulsions [1] | Authentic differences (ξ-square criterion) in appearance of signs of abstinence: Diarrhea [1] | Authentic differences (ξ-square criterion) in appearance of signs of abstinence: Dyspnea [1] | Authentic differences (ξ-square criterion) in appearance of signs of abstinence: Forelimb jogging [1] | Authentic differences (ξ-square criterion) in appearance of signs of abstinence: Grit with teeth [1] | Authentic differences (ξ-square criterion) in appearance of signs of abstinence: Mastication [1] | Authentic differences (ξ-square criterion) in appearance of signs of abstinence: Piloerection [1] | Authentic differences (ξ-square criterion) in appearance of signs of abstinence: Ptosis [1] | Authentic differences (ξ-square criterion) in appearance of signs of abstinence: Rhinorrhea [1] | Authentic differences (ξ-square criterion) in appearance of signs of abstinence: Squeak when touched [1] | Activity of NOS, hippocampus [2, 4] | Activity of NOS, hypothalamus [2, 4] | Activity of NOS, midbrain [2, 4] | Activity of NOS, striatum [2, 4] | Activity of NOS, hippocampus [2, 5] | Activity of NOS, hypothalamus [2, 5] | Activity of NOS, midbrain [2, 5] | Activity of NOS, striatum [2, 5] | further results
1 | O=c1[nH][nH]c(=O)c2ncccc12.[Li] [Compound 6, lithium salt of pyrido [2,3-d]-6H-pyridazine-5,8-dione] | 1.0000 | 0.8327 | 0.7821 | 0.0046 | 0.0722 | 0.7821 | 0.7144 | 0.1888 | 0.1847 | 0.0201 | 0.3017 | 0.1888 | 3.09 ± 0.16 nmol/min/mg of protein | 5.45 ± 0.24 nmol/min/mg of protein | 2.60 ± 0.29 nmol/min/mg of protein | 1.26 ± 0.08 nmol/min/mg of protein | 2.70 ± 0.14 nmol/min/mg of protein | 5.26 ± 0.28 nmol/min/mg of protein | 1.83 ± 0.23 nmol/min/mg of protein | 1.24 ± 0.08 nmol/min/mg of protein | Nitrites, brainstem [3, 4]: 6.31 ± 0.58 nmol/mg of protein; Nitrites, cerebellum [3, 4]: 6.66 ± 0.63 nmol/mg of protein; Nitrites, cerebral cortex [3, 4]: 4.31 ± 0.37 nmol/mg of protein; Nitrites, hippocampus [3, 4]: 6.47 ± 0.72 nmol/mg of protein; Nitrites, hypothalamus [3, 4]: 6.77 ± 0.83 nmol/mg of protein; Nitrites, midbrain [3, 4]: 6.65 ± 0.70 nmol/mg of protein; Nitrites, striatum [3, 4]: 6.11 ± 0.29 nmol/mg of protein; Nitrites, brainstem [3, 5]: 6.57 ± 0.72 nmol/mg of protein; Nitrites, cerebellum [3, 5]: 5.46 ± 0.44 nmol/mg of protein; Nitrites, cerebral cortex [3, 5]: 4.72 ± 0.37 nmol/mg of protein; Nitrites, hippocampus [3, 5]: 5.44 ± 0.43 nmol/mg of protein; Nitrites, hypothalamus [3, 5]: 6.57 ± 0.88 nmol/mg of protein; Nitrites, midbrain [3, 5]: 5.50 ± 0.48 nmol/mg of protein; Nitrites, striatum [3, 5]: 3.57 ± 0.42 nmol/mg of protein
2 | Nc1cccc2c(=O)n([C@@H]3O[C@H](CO)[C@@H](O)[C@H]3O)[nH]c(=O)c12.[Na] [Compound 10, sodium salt of 5-amino-2-(β-D-ribofuranosile)benzo[d]-3H-pyridazine-1,4-dione] | 0.7562 | 0.8456 | 0.7546 | 0.0032 | 0.0834 | 0.8217 | 0.8652 | 0.1032 | 0.2567 | 0.0320 | 0.4032 | 0.1342 | 3.09 ± 0.16 nmol/min/mg of protein | 5.45 ± 0.24 nmol/min/mg of protein | 2.60 ± 0.29 nmol/min/mg of protein | 1.26 ± 0.08 nmol/min/mg of protein | 2.51 ± 0.19 nmol/min/mg of protein | 5.36 ± 0.33 nmol/min/mg of protein | 1.99 ± 0.29 nmol/min/mg of protein | 1.29 ± 0.09 nmol/min/mg of protein | Nitrites, brainstem [3, 4]: 6.31 ± 0.58 nmol/mg of protein; Nitrites, cerebellum [3, 4]: 6.66 ± 0.63 nmol/mg of protein; Nitrites, cerebral cortex [3, 4]: 4.31 ± 0.37 nmol/mg of protein; Nitrites, hippocampus [3, 4]: 6.47 ± 0.72 nmol/mg of protein; Nitrites, hypothalamus [3, 4]: 6.77 ± 0.83 nmol/mg of protein; Nitrites, midbrain [3, 4]: 6.65 ± 0.70 nmol/mg of protein; Nitrites, striatum [3, 4]: 6.11 ± 0.29 nmol/mg of protein; Nitrites, brainstem [3, 5]: 6.99 ± 0.82 nmol/mg of protein; Nitrites, cerebellum [3, 5]: 5.85 ± 0.47 nmol/mg of protein; Nitrites, cerebral cortex [3, 5]: 4.93 ± 0.39 nmol/mg of protein; Nitrites, hippocampus [3, 5]: 5.24 ± 0.49 nmol/mg of protein; Nitrites, hypothalamus [3, 5]: 6.91 ± 0.58 nmol/mg of protein; Nitrites, midbrain [3, 5]: 5.75 ± 0.39 nmol/mg of protein; Nitrites, striatum [3, 5]: 3.57 ± 0.42 nmol/mg of protein
